{"source": "paper PMC5315023", "about": "(Nature, 2016)", "test_system": "MEFs expressing Mfn1 or Mfn2 in any combination", "test": "Mitochondrial aspect ratio/morphology with adenovirally expressed minipeptides", "type": "cell-based, mouse", "conditions": "adenoviral expression, MOI of 100, MEFs"}
{"sequence": "RQVSTAMAEEIRRLSVLVDDY [Adeno428-448]", "values": [{"measurement": "Effect on mitochondrial fusion / morphology", "value": "did not affect mitochondrial fusion"}]}
